Several values for one entry are separate records, joined by “and”; a condition that tells them apart may be missing. Identical values can stand only once.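 Values below derive from 48-hour exposures of cells grown in 96-well plates, with endpoints linearly interpolated between the two concentrations bracketing the appropriate inhibition level. GI50 = concentration required for 50% inhibition of growth. TGI marks complete inhibition of growth.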 *1 amine or outer side, *2 acyl side, *3 side chain or, on linkers, in order; H or OH if unused. Where a SMILES comes first, the peptide text is derived from it. Bridges are numbered along the chain shown (N, C = ends). [ ]: non-standard residue; d: D form. The star is where a group is joined. X19 = O=C([C@H](N[*:1])c1ccc(O[C@H]2O[C@@H](CO)[C@@H](O)[C@@H](O)[C@H]2O[C@@H]2O[C@H](CO)[C@H](O)[C@H](O)[C@@H]2O)cc1)[*:2]; X18 = NC(=O)[C@@H](O[*:3])[C@H](N[*:1])C(=O)[*:2]; X20 = O=C([C@H](N[*:1])c1ccc(O)c(Cl)c1)[*:2]; d(aThr) = C[C@@H](O)[C@@H](N)C(=O)O; dHpg = N[C@@H](C(=O)O)c1ccc(O)cc1; X17 = CC(C)C/C=C/C=C/C(=O)*; dOrn = NCCC[C@@H](N)C(=O)O
These compounds were tested on MDA-MB-468 breast (assay: NCI tumour cell line growth inhibition, 48 h).

Row | SMILES | GI50 | TGI
1 | O=C(O[C@H]1CN[C@H](C#Cc2cc3ncnc(Nc4ccc(OCc5cccc(F)c5)c(Cl)c4)c3s2)C1)N1CCOCC1 | 391 nM | 4.78 µM
2 | O=C1/C(=C/c2ccccc2)CN(CCC(=O)N2C/C(=C\c3ccccc3)C(=O)/C(=C/c3ccccc3)C2)C/C1=C\c1ccccc1 | 9330 nM | 42.8 µM
3 | COC(=O)c1cc2c3c(cc(O)c2[nH]1)N(C(=O)C1Cc2cc(OC)c(OC)c(OC)c2N1)CC3CCl (centres undefined) | < 10 nM | < 0.01 µM
4 | Cc1cc(C(NC(=O)CCCCCNc2cccc3c2C(=O)N(C2CCC(=O)NC2=O)C3=O)c2cccnc2)c(O)c2ncccc12 (centres undefined) | < 10 nM | 0.0328 µM
5 | N#C/C(=C/C=C/c1ccccc1)S(=O)c1ccccc1 (centres undefined) | 274 nM | 0.987 µM
6 | CC1OC(O[C@H]2/C=C/C=C/C=C/C=C/C=C/C=C/C=C/[C@H](C)[C@@H](O)[C@@H](C)[C@H](C)OC(=O)C[C@H](O)C[C@H](O)CC[C@@H](O)[C@H](O)C[C@H](O)C[C@]3(O)C[C@H](O)[C@@H](C(=O)O)[C@H](C2)O3)C(O)C(N)C1O (some centres undefined) | 53300 nM | > 100 µM
7 | N/C(=N\c1nc2ccccc2s1)NC(=O)Nc1ccccc1Cl | 317 nM | 5.92 µM
8 | Cc1cccc2c1O/C(=C\c1ncc([N+](=O)[O-])n1C)C2=O | 1410 nM | 4.01 µM
9 | COc1ccc(-c2csc(NC(=O)N3CCN(c4cc5c(cc4F)c(=O)c(C(=O)O)cn5C4CC4)CC3)n2)cc1 | 1140 nM | 8.13 µM
10 | O=C(NC1CCN(Cc2ccccc2)CC1)c1cc(C(=O)NC2CCN(Cc3ccccc3)CC2)cc(C(=O)NC2CCN(Cc3ccccc3)CC2)c1 | 866 nM | 1.89 µM
11 | Cc1nn(-c2ccccc2)c2ncnc(N/N=C/c3ccccc3O)c12 | 1560 nM | 8.59 µM
12 | O=C1/C(=C/c2ccccc2Br)COc2ccc(O)c(O)c21 | 1650 nM | 3.94 µM
13 | O=S(=O)(NCCCNc1cc(-c2cn(-c3ccccc3)nc2-c2cccc(O)c2)ccn1)c1cccc2ccccc12 | 1850 nM | 6.01 µM
14 | Cc1ccc2c(N/N=C\c3ccco3)cc(C)nc2n1 | 2680 nM | 7.47 µM
15 | CC(C)(C)N1CC(OC(N)=O)C1 | > 100000 nM | > 100 µM
16 | CCC(c1ccc(OC)cc1)C(CC)c1ccc(O)c(CN2CCCC2)c1 (centres undefined) | 1620 nM | 3.69 µM
17 | COc1cc(C)[nH]c(=O)c1CN1CCc2c(Cl)cc([C@H](OC)C3COC3)c(Cl)c2C1=O | > 100000 nM | > 100 µM
18 | CCCCNC(=O)Oc1ccc2c(=O)c3sc4c(=O)c5ccccc5c(=O)c4c3c(=O)c2c1 | 1450 nM | 3.39 µM
19 | O=c1ccccc(-c2ccc(-c3ccco3)cc2)c1O | 320 nM | 3.3 µM
20 | O=C1/C=C/[C@@H](O)[C@@H]2C[C@@H](O)C[C@H]2/C=C/CCC[C@H](CO)O1 | 419 nM | 2.77 µM
21 | O=C(Nc1ccc(Cl)cc1)c1cc2cc(F)ccc2cc1O | 2470 nM | 6.17 µM

Row | SMILES | GI50 | TGI
22 | CC(C)C/C=C/C=C/C(=O)N[C@@H](CC(N)=O)C(=O)N[C@@H]1C(=O)N[C@H](c2ccc(O)cc2)C(=O)N[C@H](CCCN)C(=O)N[C@H]([C@@H](C)O)C(=O)N[C@H](c2ccc(O)cc2)C(=O)N[C@H](c2ccc(O)cc2)C(=O)N[C@H]([C@H](C)O)C(=O)N[C@H](Cc2ccccc2)C(=O)N[C@H](CCCN)C(=O)N[C@H](c2ccc(O[C@H]3O[C@@H](CO)[C@@H](O)[C@@H](O)[C@H]3O[C@@H]3O[C@H](CO)[C@H](O)[C@H](O)[C@@H]3O)cc2)C(=O)N[C@H]([C@H](C)O)C(=O)N[C@H](c2ccc(O)cc2)C(=O)NCC(=O)N[C@H](CC(C)C)C(=O)N[C@H](C)C(=O)N[C@H](c2ccc(O)c(Cl)c2)C(=O)O[C@@H]1C(N)=O (X17-N[X18][dHpg][dOrn][d(aThr)][dHpg][dHpg][dT][dF][dOrn][X19][dT][dHpg]G[dL][dA][X20]; ester 2-C) | 19700 nM | 56.7 µM
23 | COc1ccc([C@@H]2[C@@H](O)C(=O)N2c2cc(OC)c(OC)c(OC)c2)cc1 | 24.3 nM | 0.0677 µM
24 | NC(=O)c1cc(Cl)ccc1NC(=O)c1ccccc1-c1ccccc1 | 448 nM | 48.7 µM
25 | COc1c(B(O)O)cccc1-c1nc2c(F)cc3[nH]ncc3c2c2c1CCCC2 | 1060 nM | 3.69 µM
26 | CNC(=O)c1cncc(/C=C/c2c(C)cccc2C)c1 | > 22700 nM | > 25 µM
27 | COc1cc(/C=C2\CN(S(=O)(=O)c3ccc(C)cc3)C/C(=C\c3cc(CN4CCCCC4)c(O)c(OC)c3)C2=O)cc(CN2CCCCC2)c1O | 1940 nM | 3.99 µM
28 | COc1ccccc1N1CCN(C(=O)c2ccc(NS(=O)(=O)c3cccc4cccnc34)cc2)CC1 | > 28900 nM | > 100 µM
29 | CCC1CCCCN1C(=S)N/N=C(\C)c1ccccn1 (centres undefined) | < 15.3 nM | 0.503 µM
30 | C[C@@H](Oc1cc(NS(=O)(=O)N2CCC2)nc(SCc2cccc(F)c2F)n1)[C@@H](O)CO | > 100000 nM | > 100 µM
31 | O=C1CCC2=C3C4CCCCC4C(=O)C4CCCC(OC2C1)C34 (centres undefined) | 1870 nM | 5.2 µM
32 | O=C1c2cccc3cc([N+](=O)[O-])cc(c23)C(=O)N1CCN1CCCC1 | 605 nM | 2.44 µM
33 | Cc1cccc2c1NC(=O)[C@@]21[C@H](C(=O)c2ccccc2)[C@]2(C(=O)Nc3ccccc32)[C@H]2CCCN21 | 22300 nM | > 100 µM
34 | C=C1SC(=Nc2ccccc2Cl)N(C(=O)c2sc3ccccc3c2Cl)C1(C)C | 12600 nM | > 100 µM
35 | COc1ccc(Cl)cc1NC(=O)c1c(NC(=O)C(F)(F)C(F)(F)F)sc2c1CCCCC2 | 765 nM | 4.68 µM
36 | Oc1ccc2ccccc2c1N=Nc1ccccn1 | 1410 nM | 4.89 µM
37 | COc1cc([C@@H]2c3cc4c(cc3[C@H](OC(C)=O)[C@H]3COC(=O)[C@H]23)OCO4)cc(OC)c1OC | 29.5 nM | > 100 µM
38 | C#Cc1cccc(Nc2ncnc3ccc(-c4cnc(Cl)c(NS(C)(=O)=O)c4)cc23)c1 | 178 nM | 0.88 µM
39 | COc1cc2c(Nc3ccc(Br)cc3F)ncnc2cc1OCC1CCN(C)CC1 | 455 nM and 452 nM | 2.57 µM and 3.53 µM
40 | CN(C)CCCN=c1cc2c(=O)n(CCCN(C)C)c(=O)c3c(NCCCN(C)C)cc4c(O)n(CCCN(C)C)c(=O)c1c4c3-2 | 1300 nM | 3.58 µM
41 | CCn1cc(C(=O)N/N=C/c2cccc(F)c2)c(=O)c2cc(F)c(N3CCNC(C)C3)c(F)c21 (centres undefined) | 1640 nM | 3.18 µM
42 | COc1cccc(-c2nc(-c3ccc(NC(=O)c4ccccc4)cc3)[nH]c2-c2ccnc(Br)c2)c1 | 2870 nM | > 100 µM
